Test results from article PMC7880688, “Hormone-sensitive lipase couples intergenerational sterol metabolism to reproductive success” (eLife, 2021).

Assays:
Type in all cases: biochemical
[1] = biological target: T1, His6-MmHsl (murine Hsl) (Mus musculus, UniProt P54310); experiment: colorimetric free fatty acid release (NEFA kit); conditions: 0.3 mM substrate emulsified with PC/PI, 2% BSA, BTP buffer pH 7.5, 37°C, 30-60 min
T1 construct: gene Lipe; N-terminal His6 tag kept, COS-7 cell extract; plasmid described previously (Lass et al., 2006)
T1 sequence (P54310 1-759): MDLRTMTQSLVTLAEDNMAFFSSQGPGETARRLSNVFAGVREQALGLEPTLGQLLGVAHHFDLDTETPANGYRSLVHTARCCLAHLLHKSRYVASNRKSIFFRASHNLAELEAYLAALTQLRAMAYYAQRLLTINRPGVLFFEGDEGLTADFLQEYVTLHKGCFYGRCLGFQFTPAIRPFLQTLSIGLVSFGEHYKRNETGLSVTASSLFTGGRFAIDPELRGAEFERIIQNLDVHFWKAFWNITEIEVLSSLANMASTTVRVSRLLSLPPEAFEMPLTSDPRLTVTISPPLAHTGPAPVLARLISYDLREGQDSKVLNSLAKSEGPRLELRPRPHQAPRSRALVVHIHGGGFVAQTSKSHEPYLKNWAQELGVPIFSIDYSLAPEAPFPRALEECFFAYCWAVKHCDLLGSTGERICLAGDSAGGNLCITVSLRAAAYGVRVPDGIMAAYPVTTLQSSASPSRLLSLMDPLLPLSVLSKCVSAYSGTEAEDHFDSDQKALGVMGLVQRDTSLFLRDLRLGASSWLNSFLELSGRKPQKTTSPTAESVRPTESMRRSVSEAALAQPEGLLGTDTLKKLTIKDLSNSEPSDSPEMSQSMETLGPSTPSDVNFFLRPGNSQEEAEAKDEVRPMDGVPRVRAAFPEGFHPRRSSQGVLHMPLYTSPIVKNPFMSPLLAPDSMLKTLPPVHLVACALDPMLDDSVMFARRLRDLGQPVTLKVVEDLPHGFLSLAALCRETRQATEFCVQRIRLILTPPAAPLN

[2] = biological target: T2, His6-Hsl (Drosophila Hsl) (Drosophila melanogaster, UniProt A4UZQ8); experiment: colorimetric free fatty acid release (NEFA kit); conditions: 0.3 mM substrate emulsified with PC/PI, 2% BSA, BTP buffer pH 7.5, 37°C, 30-60 min
T2 construct: Hsl open reading frame from cDNA RE52776 in pcDNA4/HisMax C, N-terminal His6 tag kept, COS-7 cell extract
T2 sequence (A4UZQ8 2-881): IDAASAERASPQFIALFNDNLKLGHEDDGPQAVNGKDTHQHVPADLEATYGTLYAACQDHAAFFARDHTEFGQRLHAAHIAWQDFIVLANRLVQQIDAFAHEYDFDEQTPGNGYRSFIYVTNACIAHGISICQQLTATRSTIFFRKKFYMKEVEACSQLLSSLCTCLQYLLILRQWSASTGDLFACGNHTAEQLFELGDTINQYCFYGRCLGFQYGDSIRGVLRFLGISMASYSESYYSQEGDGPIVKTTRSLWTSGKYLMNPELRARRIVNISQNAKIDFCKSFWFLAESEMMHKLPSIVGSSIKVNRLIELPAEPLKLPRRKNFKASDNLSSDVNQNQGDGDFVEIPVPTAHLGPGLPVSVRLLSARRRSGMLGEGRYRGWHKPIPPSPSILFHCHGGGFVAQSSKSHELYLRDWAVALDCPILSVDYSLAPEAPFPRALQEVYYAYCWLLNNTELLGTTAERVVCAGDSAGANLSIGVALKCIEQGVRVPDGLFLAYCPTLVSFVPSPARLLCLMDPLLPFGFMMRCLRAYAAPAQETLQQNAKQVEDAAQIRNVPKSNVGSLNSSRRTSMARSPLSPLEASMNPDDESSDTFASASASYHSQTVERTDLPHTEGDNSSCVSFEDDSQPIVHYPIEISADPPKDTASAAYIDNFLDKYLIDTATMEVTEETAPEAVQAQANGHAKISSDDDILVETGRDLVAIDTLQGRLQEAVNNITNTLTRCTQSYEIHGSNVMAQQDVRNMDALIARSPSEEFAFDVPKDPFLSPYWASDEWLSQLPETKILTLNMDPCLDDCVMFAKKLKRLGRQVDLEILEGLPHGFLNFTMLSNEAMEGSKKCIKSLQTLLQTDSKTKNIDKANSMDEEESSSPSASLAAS

[3] = biological target: T1, His6-MmHsl (murine Hsl); experiment: release of labelled fatty acid, scintillation counting; conditions: 0.45 mM substrate emulsified with PC/PI, 5% BSA, BTP buffer pH 7.5, 37°C, 60 min; labelled compound (14C-cholesteryl oleate tracer)
[4] = biological target: T2, His6-Hsl (Drosophila Hsl); experiment: as above; conditions: 0.45 mM substrate emulsified with PC/PI, 5% BSA, BTP buffer pH 7.5, 37°C, 60 min; labelled compound (14C-cholesteryl oleate tracer)

| Compound | colorimetric free fatty acid release (NEFA kit) [1] | colorimetric free fatty acid release (NEFA kit) [2] | release of labelled fatty acid, scintillation counting [3] | release of labelled fatty acid, scintillation counting [4] |
| --- | --- | --- | --- | --- |
| CCCCCCCC/C=C\CCCCCCCC(=O)OCC(CO)OC(=O)CCCCCCC/C=C\CCCCCCCC (racemic) [DG 36:2, 1,2-dioleoyl-rac-glycerol] | Expression of His6-MmHsl increased cellular hydrolysis rates toward monoacylglycerol (MG), DG, TG, and SE | Expression of fly His6-Hsl elevated cellular hydrolysis rates toward MG, DG, TG, and SE | – | – |
| CCCCCCCC/C=C\CCCCCCCC(=O)O[C@H]1CC[C@@]2(C)C(=CC[C@H]3[C@@H]4CC[C@H]([C@H](C)CCCC(C)C)[C@@]4(C)CC[C@@H]32)C1 [CE 18:1, cholesteryl oleate] | – | – | Expression of His6-MmHsl increased cellular hydrolysis rates toward monoacylglycerol (MG), DG, TG, and SE | Expression of fly His6-Hsl elevated cellular hydrolysis rates toward MG, DG, TG, and SE |
